This note sets out measurements from patent US9120774B2 (University of Kansas, priority 2009, dated 2015).

Each structure is given as a SMILES string. Read-outs that look alike come from different tables or passages of the source.

Type in all cases: cell-based
For assay [1], the system named is SkBr3 (Her2 overexpressing breast cancer cells). The assay is described as follows: Anti-proliferation activity against SkBr3 cells (MTS/PMS). The note with it: Homo sapiens, SK-BR-3. The essentials: (§1)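 Cells seeded at 2000/well, attached overnight, then exposed to compound at varying concentrations (1% DMSO final) for 72 hours at 37° C. Viable cells read by MTS/PMS, normalised to 1% DMSO as 100% proliferation. IC50 from separate triplicate experiments.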

In another assay the test system is cancer cell lines. As to the kind of experiment: Anti-proliferative activity, statements covering several cancer cell lines. The note with it: for fold reduced activity versus the compound with a hydrogen at the 5-position: both breast cancer cell lines. As for the experimental part: Upon completion of synthesis of library of compounds in Examples 23 and 24, the compounds were evaluated for anti-proliferative activity against SkBr3 (Her2 overexpressing breast cancer cells), MCF-7 (estrogen receptor positive breast cancer cells), HCT-116 (colon cancer cells characterized by wild-type p53), PL45 (pancreatic cancer cells), LNCaP (androgen sensitive prostate cancer cells) and PC-3 (androgen independent prostate cancer cells) cell lines. […] The monosubstituted benzamide variants improved activity.
(§2) Cells were maintained in a 1:1 mixture of Advanced DMEM/F12 (Gibco) supplemented with non-essential amino acids, L-glutamine (2 mM), streptomycin (500 ng/mL), penicillin (100 units/mL), and 10% FBS. Cells were grown to confluence in a humidified atmosphere (37° C., 5% CO2), seeded (2000/well, 100 μl) in 96-well plates, and allowed to attach overnight. Compound or GDA at varying concentrations in DMSO (1% DMSO final concentration) was added, and cells were returned to the incubator for 72 hours. At 72 hours, the number of viable cells was determined using an MTS/PMS cell proliferation kit (Promega) per the manufacturer's instructions. Cells incubated in 1% DMSO were used at 100% proliferation, and values were adjusted accordingly. IC50 values were calculated from separate experiments performed in triplicate using GraphPad Prism.
as §2, with “μg/mL),” for “ng/mL),”, “μL)” for “μl)”

Assay [2] relates to MCF-7 (estrogen receptor positive breast cancer cells). The assay is described as follows: Anti-proliferation activity against MCF-7 cells (MTS/PMS). The settings on record: for IC50: Homo sapiens, MCF7. The essentials:
as §1

Assay [3] deals with PC-3 (androgen independent prostate cancer cells). The assay is described as follows: Anti-proliferation activity against PC-3 cells. The settings on record: for IC50: Homo sapiens, PC-3, read-out: IC50 PC-3. The essentials:
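Antiproliferative activity was tested in PC-3 androgen-independent prostate cancer cells. Cells grown at 37° C. with 5% CO2 in Advanced DMEM/F12 (1:1) containing non-essential amino acids, 2 mM L-glutamine, streptomycin, penicillin and 10% FBS were plated at 2000/well in 96-well plates. Proliferation was normalized to 1% DMSO controls, and IC50 values from triplicate experiments were fitted in GraphPad Prism.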

The subject of assay [4] is LNCaP (androgen sensitive prostate cancer cells). The assay is described as follows: Anti-proliferation activity against LNCaP cells. The settings on record: Homo sapiens, LNCaP. In outline: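 Cells seeded at 2000/well in Advanced DMEM/F12 with 10% FBS and attached overnight, then given compound in 1% DMSO final for 72 h at 37 °C, 5% CO2. Viable cells by MTS/PMS read-out, normalised to 1% DMSO as 100% proliferation. IC50 from separate triplicate experiments.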

The subject of assay [5] is PL45 (pancreatic cancer cells). As to the kind of experiment: Anti-proliferation activity against PL45 cells.
Assay [6] deals with HCT-116 (colon cancer cells characterized by wild-type p53). The assay is described as follows: Anti-proliferation activity against HCT-116 cells. The note with it: Homo sapiens.
The mark [7] stands for this setting: Table 6, 72 hours, MTS/PMS, mean ± standard deviation, read-out: IC50 SKBr3.
The mark [8] stands for this setting: Table 6, 72 hours, MTS/PMS, mean ± standard deviation.
The mark [9] stands for this setting: Table 6, 72 hours, MTS/PMS, mean ± standard deviation, read-out: IC50 LnCaP.
The mark [10] stands for this setting: Table 6, 72 hours, MTS/PMS, mean ± standard deviation, read-out: IC50 MCF-7.
Setting [11] is: Table 4, biaryl analogues, n = 3, read-out: IC50 SkBr3.
[12] abbreviates: Table 4, biaryl analogues, n = 3.
[13] abbreviates: Table 4, biaryl analogues, n = 3, read-out: IC50 MCF-7.
Where [14] appears, read: Table 5, heterocyclic analogues, n = 3.

In general, IC50 refers to the concentration that inhibits the measured activity by half.

Regarding `CC(C)=CCc1cc(C(=O)Nc2cc3ccc(O[C@@H]4C[C@H](O)CCO4)c(C)c3oc2=O)ccc1O` [18b, KU-430, 4-Hydroxy-N-(7-((2R,4R)-4-hydroxytetrahydro-2H-pyran-2-yloxy)-8-methyl-2-oxo-2H-chromen-3-yl)-3-(3-methylbut-2-enyl)benzamide], the IC50 in assay [1] (Table 18, modified furanose or pyranose noviose replacements, read-out: IC50, SKBr3) came to 3.11 ± 0.19 µM; in assay [1] (text of Example 47, read-out: IC50 SKBr3), 3.11 ± 0.03 µM; in assay [2] (Table 18, modified furanose or pyranose noviose replacements, read-out: IC50, MCF7) it was 1.56 ± 0.09 µM; in assay [2] (text of Example 47, read-out: IC50 MCF-7), 1.56 ± 0.2 µM. In addition, in the assay with cancer cell lines, the “times/fold more active than DHN2 (anti-proliferative activity)” value is recorded as about 3 fold. For the same molecule, in the assay with cancer cell lines, the “times/fold more active than novobiocin (anti-proliferative activity)” value is about 200 fold.

`COc1cccc(-c2cc(C(=O)Nc3cc4c(OC)cc(O[C@@H]5OC(C)(C)[C@H](OC)[C@@H](O)[C@H]5O)c(C)c4oc3=O)ccc2OC)c1` [26d, N-(7-((2R,3R,4S,5R)-3,4-dihydroxy-5-methoxy-6,6-dimethyltetrahydro-2H-pyran-2-yloxy)-5-methoxy-8-methyl-2-oxo-2H-chromen-3-yl)-3′,6-dimethoxybiphenyl-3-carboxamide]: the IC50 was 55.7 ± 6.9 µM in assay [1] (setting [7]), 11.3 ± 2 µM in assay [3] (setting [8]), 2 ± 0.8 µM in assay [4] (setting [9]) and 82.8 µM in assay [2] (setting [10]). For the same molecule, the “fold reduced activity versus the compound with a hydrogen at the 5-position” value with cancer cell lines is listed as 4 fold.

Consider `COc1cccc(-c2cc(C(=O)Nc3cc4ccc(O[C@@H]5OC(C)(C)[C@H](OC)[C@@H](O)[C@H]5O)c(OC)c4oc3=O)ccc2OC)c1` [26g, N-(7-((2S,3R,4S,5R)-3,4-dihydroxy-5-methoxy-6,6-dimethyltetrahydro-2H-pyran-2-yloxy)-8-methoxy-2-oxo-2H-chromen-3-yl)-3′,6-dimethoxybiphenyl-3-carboxamide], for which the IC50 in assay [1] (setting [7]) is 13.9 ± 1.2 µM; in assay [3] (setting [8]), 2.3 ± 2.9 µM; in assay [4] (setting [9]), 1.1 ± 0.1 µM; in assay [2] (setting [10]), 9 ± 5.4 µM. The “fold increased activity versus the 8-methyl derivative” value in assay [3] (PC-3 cells) came to 10 fold. Besides, in the assay with cancer cell lines (breast cancer cells), the “fold improved activity over its 8-methyl counterpart” value is reported as 2 fold. The “fold increased activity over 8-ethyl 26h” value in the assay with cancer cell lines (breast cancer cells) stood at 5 fold.

With `COc1cc(O[C@@H]2OC(C)(C)[C@H](OC)[C@@H](O)[C@H]2O)c(C)c2oc(=O)c(NC(=O)c3cc4ccccc4[nH]3)cc12` [26l, N-(7-((2R,3R,4S,5R)-3,4-dihydroxy-5-methoxy-6,6-dimethyltetrahydro-2H-pyran-2-yloxy)-5-methoxy-8-methyl-2-oxo-2H-chromen-3-yl)-1H-indole-2-carboxamide], the IC50 in assay [1] (setting [7]) was determined as 9 ± 0.8 µM; in assay [3] (setting [8]), 11.8 ± 1.3 µM; in assay [4] (setting [9]) it was 12.9 ± 4.4 µM; in assay [2] (setting [10]), 6.1 ± 1.7 µM. In the assay with cancer cell lines, the “fold reduced activity versus the compound with a hydrogen at the 5-position” value was 15 fold.

For the molecule `CO[C@@H]1[C@@H](O)[C@@H](O)[C@H](Oc2ccc3cc(NC(=O)c4cc5ccccc5[nH]4)c(=O)oc3c2Cc2ccccc2)OC1(C)C` [26m, N-(8-benzyl-7-((2R,3R,4S,5R)-3,4-dihydroxy-5-methoxy-6,6-dimethyltetrahydro-2H-pyran-2-yloxy)-2-oxo-2H-chromen-3-yl)-1H-indole-2-carboxamide], the IC50 in assay [1] (setting [7]) came out at 38 ± 3 µM; in assay [3] (setting [8]), 73.3 ± 3.7 µM; in assay [4] (setting [9]), 67.6 ± 6.3 µM; in assay [2] (setting [10]) it was 13.2 ± 0.6 µM. Also, the “fold less active than the 8-methyl analogue” value with cancer cell lines (PC-3 and LnCaP cells) is “about 4 fold”. For the same molecule, in assay [2] (MCF-7 cells), the “fold less active than the 8-methyl derivative” value is recorded as 23 fold.

With `CO[C@@H]1[C@@H](O)[C@@H](O)[C@H](Oc2ccc3cc(NC(=O)/C=C/c4ccccc4)c(=O)oc3c2C)OC1(C)C` [compound 25, N-(7-((2R,3R,4S,5R)-3,4-Dihydroxy-5-methoxy-6,6-dimethyltetrahydro-2H-pyran-2-yloxy)-8-methyl-2-oxo-2H-chromen-3-yl)cinnamamide], the IC50 in assay [1] (Table 3, n = 3, read-out: IC50 SkBr3) came out at 2.6 ± 0.6 µM; in assay [5] (Table 3, n = 3) it was 3 ± 1 µM; in assay [3] (Table 3, n = 3) it was 3.9 ± 0.05 µM; in assay [6] (Table 3, n = 3) it was 3.2 ± 0.5 µM; in assay [4] (Table 3, n = 3, read-out: IC50 LNCaP), 4.5 ± 0.7 µM; in assay [2] (Table 3, n = 3, read-out: IC50 MCF-7), 4 ± 0.3 µM. Further, in the assay on cancer cell lines, the “fold increase in inhibitory activity versus the saturated derivative (23)” value is “about 3 fold”.

For the molecule `COc1ccccc1-c1cc(C(=O)Nc2cc3ccc(O[C@@H]4OC(C)(C)[C@H](OC)[C@@H](O)[C@H]4O)c(C)c3oc2=O)ccc1OC` [compound 32, N-(7-((2R,3R,4S,5R)-3,4-Dihydroxy-5-methoxy-6,6-dimethyltetrahydro-2H-pyran-2-yloxy)-8-methyl-2-oxo-2H-chromen-3-yl)-2′,6-dimethoxybiphenyl-3-carboxamide], the IC50 was 7.1 ± 0.6 µM in assay [1] (setting [11]); 3.8 ± 1.7 µM in assay [5] (setting [12]); 52.3 ± 34.7 µM in assay [3] (setting [12]); 5.2 ± 2.1 µM in assay [6] (setting [12]); 6 ± 1 µM in assay [4] (Table 4, biaryl analogues, n = 3, read-out: IC50 LNCaP); 15.6 ± 6.3 µM in assay [2] (setting [13]). Also, in the assay with cancer cell lines, the “fold improved inhibition compared to 28” value is given as “about 2 fold”.

Consider `COc1ccc(C(=O)Nc2cc3ccc(O[C@@H]4OC(C)(C)[C@H](OC)[C@@H](O)[C@H]4O)c(C)c3oc2=O)cc1-c1ccccc1O` [compound 35, N-(7-((2R,3R,4S,5R)-3,4-Dihydroxy-5-methoxy-6,6-dimethyltetrahydro-2H-pyran-2-yloxy)-8-methyl-2-oxo-2H-chromen-3-yl)-2′-hydroxy-6-methoxybiphenyl-3-carboxamide], for which the IC50 in assay [1] (setting [11]) came to 1.5 ± 0.1 µM; in assay [5] (setting [12]), 1.4 ± 0.2 µM; in assay [3] (setting [12]) it was 16.6 ± 4.4 µM; in assay [6] (setting [12]), 4.7 ± 1.4 µM; in assay [2] (setting [13]), 1.5 ± 0.1 µM. The “fold improved inhibition compared to 28” value in the assay on cancer cell lines is on record as “about 8 fold”.

With `CO[C@@H]1[C@@H](O)[C@@H](O)[C@H](Oc2ccc3cc(NC(=O)c4c[nH]c5ccccc45)c(=O)oc3c2C)OC1(C)C` [compound 47, N-(7-((2R,3R,4S,5R)-3,4-Dihydroxy-5-methoxy-6,6-dimethyltetrahydro-2H-pyran-2-yloxy)-8-methyl-2-oxo-2H-chromen-3-yl)-1H-indole-3-carboxamide], the IC50 in assay [1] (Table 5, heterocyclic analogues, n = 3, read-out: IC50 SkBr3) is 12.2 ± 1.5 µM; in assay [5] (setting [14]), 1.8 ± 0.3 µM; in assay [3] (setting [14]), 4.8 ± 2.4 µM; in assay [6] (setting [14]), 3.5 ± 0.5 µM; in assay [4] (Table 5, heterocyclic analogues, n = 3, read-out: IC50 LNCaP), 2.3 ± 0.1 µM; in assay [2] (Table 5, heterocyclic analogues, n = 3, read-out: IC50 MCF-7), 5.3 ± 0.3 µM. In the assay on cancer cell lines, the “times less effective than compound 46” value is recorded as 3-10 times.
